The record followed here is US8232275B2, “2,2-bis-(hydroxymethyl)cyclopropylidenemethyl-purines and -pyrimidines as antiviral agents” (Wayne State University, priority 2002, dated 2012).

As a reminder, the IC50 is the concentration at which inhibition is half-maximal. As a reminder, the melting point is the temperature, or range, at which the solid turns liquid.

For one data set, the system named is HCMV. Description: HCMV plaque reduction assay in HFF cells. As to conditions: Human betaherpesvirus 5, HFF host cells. Format: cell-based, human cytomegalovirus (HCMV). As for the experimental part:
(§1) Cells and viruses. The routine growth and passage of KB cells was performed in monolayer cultures using minimal essential medium (MEM) with either Hanks salts [MEM(H)] or Earle salts [MEM(E)] supplemented with 10% calf serum. The sodium bicarbonate concentration was varied to meet the buffering capacity required. Cultures of diploid human foreskin fibroblasts (HFF) or MRC-5 cells were grown in medium consisting of MEM(E) with 10% fetal bovine serum. Cells were passaged at 1:2 to 1:10 dilutions according to conventional procedures by using 0.05% trypsin plus 0.02% EDTA in a HEPES buffered salt solution (HBS) (Shipman, C., Jr., Proc. Soc. Exp. Biol. 130:305-310 (1969)) as described previously. Turk, S. R., et al., Antimicrob. Agents Chemother. 31:544-550 (1987). HFF and MRC-5 cells were passaged only at 1:2 dilutions. CEM cells were maintained in suspension culture as detailed previously. Kucera, L. S., et al., AIDS Res. Human Retroviruses 9:307-314 (1993).
(§2) Virological procedures. Stock HCMV was prepared by infecting HFF cells at a multiplicity of infection (m.o.i.) of <0.01 plaque-forming units (p.f.u.) per cell. Cell growth medium was changed every four days until cytopathology was evident in all cells (approximately 21 days). Supernatant fluids were retained as the virus stock. High titer HSV-1 stocks were prepared by infecting KB cells at an m.o.i. of <0.1 as detailed previously. Turk, S. R., et al., Antimicrob. Agents Chemother. 31:544-550 (1987). Virus titers were determined using monolayer cultures of HFF cells for HCMV and monolayer cultures of BSC-1 cells for HSV-1 as described earlier. Prichard, M. N. et al., J. Virol. Methods 28:101-106 (1990). Briefly, HFF or BSC-1 cells were planted as described above in 96-well cluster dishes and incubated overnight at 37° C. in a humidified 3% CO2-97% air atmosphere. The next day cultures were inoculated with HCMV or HSV-1 and serially diluted 1:3 across the remaining eleven columns of the 96-well plate. Cultures were incubated at 37° C. for 2 hr to permit virus adsorption and then virus inoculum was replaced with 0.2 mL of fresh medium. Cultures were incubated for seven days for HCMV, two or three days for HSV-1, medium was removed, and the cell sheets were stained with 0.1% crystal violet in 20% methanol. Plaques were enumerated under 20-fold magnification in wells having the dilution which gave 5 to 20 plaques per well. Virus titers were calculated according to the following formula: Titer (p.f.u./mL)=number of plaques×5×3^n; where n represents the nth dilution of the virus used to infect the well in which plaques were enumerated.
Assays for Antiviral Activity. (a) HCMV. The effect of compounds on the replication of HCMV has been measured using a plaque reduction assay. HFF cells in 24-well cluster dishes were infected with approximately 100 p.f.u. of HCMV per cm^2 cell sheet using the procedures detailed above. Following virus adsorption, compounds dissolved in growth medium were added to duplicate wells in three to six selected concentrations. Following incubation at 37° C. for 7 to 10 days, cell sheets were fixed, stained with crystal violet and microscopic plaques enumerated as described above. Drug effects were calculated as a percentage of reduction in number of plaques in the presence of each drug concentration compared to the number observed in the absence of drug. Ganciclovir (DHPG) was used as a positive control in all experiments.
Data Analysis. Dose-response relationships were constructed by linearly regressing the percent inhibition of parameters derived in the preceding sections against log drug concentrations. Fifty-percent inhibitory (IC50) concentrations were calculated from the regression lines. Samples containing positive controls (acyclovir for HSV-1, ganciclovir for HCMV, and 2-acetylpyridine thiosemicarbazone for cytotoxicity) were used in all assays. […]
In general terms: Plaques are areas of infected cells; plaque reduction assays count them against a control.

The next data set has as its system HSV-1. The data set can be described thus: HSV-1 ELISA in BSC-1 cells. It is filed as cell-based, herpes simplex virus type 1 (HSV-1). As to conditions: Human alphaherpesvirus 1. The procedure: as §1, §2
Assays for Antiviral Activity. (b) HSV-1. An enzyme-linked immunosorbent assay (ELISA) was employed to detect HSV-1. 96-well cluster dishes were planted with BSC-1 cells at 10,000 cells per well, in a total volume of 200 μL per well of MEM(E) plus 10% calf serum. After overnight incubation at 37° C., drug and HSV-1 was added at the rate of 100 PFU/well. ELISA plates were blocked with 200 μL per well of 10% calf serum and 0.05% tween in HBS. After incubation for 30 minutes, the blocking agent was rinsed two times with HBS-T. A 1:400 dilution of AP conjugated rabbit anti-HSV-1 antibody in HBS-F was added. Plates were sealed with adhesive sheet, and incubated on rocker for one hour at 37° C. Plates were developed in the dark with […] per well of substrate solution containing p-nitrophenyl phosphate. Plates were read at 492 nm. Drug effects were calculated as a percentage of the reduction in virus in the presence of each drug concentration compared to the titer obtained in the absence of drug. Acyclovir was used as a positive control in all experiments.
Data Analysis. Dose-response relationships were constructed by linearly regressing the percent inhibition of parameters derived in the preceding sections against log drug concentrations. Fifty-percent inhibitory (IC50) concentrations were calculated from the regression lines. […]
(In general: An ELISA detects its analyte on a solid surface through an enzyme-linked reagent.)

Data set [1] can be described thus: Cytotoxicity in stationary HFF cells, microscopic (visual) inspection. It is filed as cell-based. The following applies: human, stationary HFF cells (uninfected cells of the plaque assays), read-out: IC50 (μM) HFF (visual). The procedure: (§3) Cytotoxicity assays. Two different assays were used to explore cytotoxicity of selected compounds as we have detailed previously. (i) Cytotoxicity produced in stationary HFF cells was determined by microscopic inspection of cells used in plaque assays which were not affected by the virus. Turk, S. R., et al., Antimicrob. Agents Chemother. 31:544-550 (1987). (ii) The effect of compounds during two population doublings of KB cells was determined by crystal violet staining and spectrophotometric quantitation of dye eluted from stained cells. Prichard, M. N., et al., Antimicrob. Agents Chemother. 35:1060-1065 (1991). Data Analysis. Dose-response relationships were constructed by linearly regressing the percent inhibition of parameters derived in the preceding sections against log drug concentrations. Fifty-percent inhibitory (IC50) concentrations were calculated from the regression lines. Samples containing positive controls (acyclovir for HSV-1, ganciclovir for HCMV, and 2-acetylpyridine thiosemicarbazone for cytotoxicity) were used in all assays. Results from sets of assays were rejected if inhibition by the positive control deviated from its mean response by >±1.5 standard deviations.

The next data set has as its system KB cells. Description: Cytotoxicity in KB cells, growth during two population doublings (crystal violet). It is filed as cell-based. The procedure:
as §3

Marks after values point to notes of the source that are not given here. Some results are limits rather than exact numbers.

With `Nc1ncnc2c1ncn2/C=C1/CC1(CO)CO` [Compound 1a, (Z)-9-{(2,2-Bis-(hydroxymethyl)cyclopropylidene)methyl}-adenine], the figures for the IC50 in the data set on HCMV and in the data set with HSV-1 were 3.6 µM and 50 µM, respectively. For the same compound, in data set [1], the CC50 was above 100 µM. For the same compound, the “IC50 (μM) KB (growth)” value in the data set on KB cells (human) was above 100 µM.
For `Nc1nc(NC2CC2)c2ncn(/C=C3\CC3(CO)CO)c2n1` [Compound 2h, (E)-2-Amino-6-cyclopropylamino-9-{[2,2-bis-(hydroxymethyl)-cyclopropylidene]methyl}purine], the melting point fell in the range of 164 to 165 °C.
Regarding `Cc1cn(/C=C2/CC2(CO)CO)c(=O)[nH]c1=O` [Compound 1f, (Z)-1-{[2,2-Bis-(hydroxymethyl)cyclopropylidene]methyl}-thymine], the IC50 in the data set with HCMV was above 100 µM; with HSV-1, 10 µM. Also, the CC50 in data set [1] is above 100 µM. The “IC50 (μM) KB (growth)” value in the data set with KB cells (human) was above 100 µM.
In turn, `Nc1nc(NC2CC2)c2ncn(/C=C3/CC3(CO)CO)c2n1` [Compound 1h, (Z)-2-Amino-6-cyclopropylamino-9-{[2,2-bis-(hydroxymethyl)-cyclopropylidene]methyl}purine] came in with a melting point of 195 to 196 °C.
`Nc1nc2c(ncn2COCCO)c(=O)[nH]1` [Acyclovir, reference compound] yielded an IC50 in the data set with HSV-1 of 0.15 µM. The “IC50 (μM) KB (growth)” value in the data set with KB cells (cytotoxicity, KB cell growth) is recorded as >100 ^b μM.
Regarding `Nc1nc2c(ncn2/C=C2\CC2(CO)CO)c(=O)[nH]1` [Compound 2c, (E)-9-{[2,2-Bis-(hydroxymethyl)cyclopropylidene]methyl}-guanine], the IC50 was above 100 µM in the data set with HCMV and 39 µM with HSV-1. In data set [1], the CC50 is above 100 µM. Also, the “IC50 (μM) KB (growth)” value in the data set on KB cells (human) was above 100 µM.
As for `Nc1ccn(/C=C2\CC2(CO)CO)c(=O)n1` [Compound 2e, (E)-1-{[2,2-bis-(hydroxymethyl)cyclopropylidene]methyl}cytosine], the melting point lay in the range of 249 to 251 °C.
On to `Nc1nc(N)c2ncn(/C=C3\CC3(CO)CO)c2n1` [Compound 2o, (E)-2,6-Diamino-9-{[2,2-bis-(hydroxymethyl)cyclopropylidene]-methyl}purine], for which the melting point lay in the range of 219 to 220 °C.
With `COc1nc(N)nc2c1ncn2/C=C1/CC1(CO)CO` [Compound 1g, (Z)-2-amino-6-methoxy-9-{[2,2-bis-(hydroxymethyl)cyclopropylidene]-methyl}purine], the melting point is 188 to 189 °C. In the data set on HCMV, this compound yielded an IC50 of 3.5 µM. This compound also registered an IC50 with HSV-1 above 100 µM. Moreover, the CC50 in data set [1] is above 100 µM. In the data set with KB cells (human), the “IC50 (μM) KB (growth)” value was above 100 µM.
In the data set with HCMV, `Nc1nc(O)c2ncn(COC(CO)CO)c2n1` [Ganciclovir, reference compound] had an IC50 of 4.1 µM. For the same compound, the CC50 in data set [1] is above 100 µM.
`COc1nc(N)nc2c1ncn2/C=C1\CC1(CO)CO` [Compound 2g, (E)-2-amino-6-methoxy-9-{[2,2-bis-(hydroxymethyl)cyclopropylidene]-methyl}purine] gave a melting point of 179 to 180 °C.
In the case of `Nc1nc(N)c2ncn(/C=C3/CC3(CO)CO)c2n1` [Compound 1o, (Z)-2,6-Diamino-9-{[2,2-bis-(hydroxymethyl)cyclopropylidene]-methyl}-purine], the melting point fell in the range of 249 to 250 °C. In the data set on HCMV, this compound had an IC50 of 15 µM. Besides, the IC50 in the data set with HSV-1 is above 100 µM. Besides, the CC50 in data set [1] is above 100 µM. The “IC50 (μM) KB (growth)” value in the data set on KB cells (human) was above 100 µM.
In the case of `Nc1nc2c(ncn2/C=C2/CC2(CO)CO)c(=O)[nH]1` [Compound 1c, (Z)-9-{[2,2-Bis-(hydroxymethyl)cyclopropylidene]methyl}-guanine], the IC50 in the data set with HCMV was 0.46 µM; with HSV-1, above 100 µM. For the same compound, in data set [1], the CC50 is above 100 µM. For the same compound, the “IC50 (μM) KB (growth)” value with KB cells (human) is above 100 µM.
`Nc1ccn(/C=C2/CC2(CO)CO)c(=O)n1` [Compound 1e, (Z)-1-{[2,2-Bis-(hydroxymethyl)cyclopropylidene]methyl}-cytosine] came in with a melting point of 250 to 253 °C. The compound also gave an IC50 in the data set with HCMV of 32 µM. In the data set on HSV-1, this compound displayed an IC50 above 100 µM. Also, the CC50 in data set [1] was above 100 µM. In addition, the “IC50 (μM) KB (growth)” value in the data set with KB cells (human) was above 100 µM.
